ChEMBL document CHEMBL5096168, “An insight on medicinal aspects of novel HIV-1 capsid protein inhibitors” (Eur J Med Chem, 2021)

Assays:
[1] = system: Human immunodeficiency virus 1; test: Antiviral activity against HIV 1 NL4-3 infected in human MT2 cells assessed as inhibition of replication by XTT assay; assay type: functional, organism-based; conditions: Human immunodeficiency virus 1, NL4-3, MT2
[2] = system: Human immunodeficiency virus 1; test: Antiviral activity against recombinant HIV 1 expressing luciferase and envelope glycoprotein of HIV-1 YU-2 infected in Cf2Th-CCR5 cells assessed as inhibition of viral infection by measuring luciferase activity; assay type: functional, organism-based; conditions: Human immunodeficiency virus 1, Cf2Th-CCR5
[3] = system: Human immunodeficiency virus 1; test: Antiviral activity against HIV 1 NL4-3 infected in human C8166 cells expressing LTR-luciferase reporter gene assessed as inhibition of viral replication pretreated with virus for 1.5 hrs followed by compound addition and measured after 3 days; assay type: functional, organism-based; conditions: Human immunodeficiency virus 1, NL4-3, C8166
[4] = Modulation of capsid disassembly in HIV 1 NL4-3 infected in human C8166 cells expressing LTR-luciferase reporter gene assessed as inhibition of viral protein disassembly; assay type: functional, cell-based; conditions: Human immunodeficiency virus 1, NL4-3, C8166
[5] = system: Human immunodeficiency virus 1; test: Antiviral activity against HIV 1 infected in human SUP-T1 cells assessed as inhibition of viral replication by measuring luciferase activity after 72 hrs by steady glo reagent based luminescence assay; assay type: functional, organism-based; conditions: Human immunodeficiency virus 1, SUP-T1, 72 h
[6] = system: Human immunodeficiency virus 1; test: Antiviral activity against HIV 1 in human C8166 cells expressing LTR-luciferase reporter gene assessed as inhibition of viral replication incubated for 72 hrs by multiple-cycle viral replication assay; assay type: functional, organism-based; conditions: Human immunodeficiency virus 1, C8166, 72 h
[7] = system: Human immunodeficiency virus 1; test: Antiviral activity against HIV 1 NL4-3; assay type: functional, organism-based; conditions: Human immunodeficiency virus 1, NL4-3
[8] = system: Human immunodeficiency virus 1; test: Antiviral activity against HIV 1 NL4-3 infected in […] MT2 cells assessed as reduction in luciferase activity incubated for 4 to 5 days; assay type: functional, organism-based; conditions: Human immunodeficiency virus 1, NL4-3, MT2
[9] = system: Human immunodeficiency virus 1; test: Antiviral activity against HIV 1; assay type: functional, organism-based
[10] = system: Human immunodeficiency virus 2; test: Antiviral activity against HIV 2; assay type: functional, organism-based
[11] = Metabolic stability in C57Bl/6 mouse liver microsomes assessed as half life by LC-MS/MS analysis; assay type: ADME, Microsome
[12] = system: TZM; test: Cytotoxicity against human TZM-bl cells assessed as reduction in cell viability incubated for 1 day by CytoTox-Glo stain based assay; assay type: functional; conditions: 24 h
[13] = system: Human immunodeficiency virus 1; test: Antiviral activity against HIV 1 infected in human TZM-bl cells by MTT assay; assay type: functional, organism-based; conditions: Human immunodeficiency virus 1, TZM-bl
[14] = system: Human immunodeficiency virus 1; test: Antiviral activity against HIV 1 infected in human PBMC cells assessed as viral inhibition incubated for 7 days with media replacement for every 3 days by ELISA; assay type: functional, organism-based; conditions: Human immunodeficiency virus 1, PBMC
[15] = system: Human immunodeficiency virus 1; test: Antiviral activity against HIV 1 infected in HeLa cells transfected with CD4,[…] and LacZ gene assessed as reduction in viral replication measured after 72 hrs by ELISA; assay type: functional, organism-based; conditions: Human immunodeficiency virus 1, HeLa
[16] = molecular target: Structural capsid protein (Human immunodeficiency virus 1, UniProt Q76129); test: Inhibition of HIV 1 capsid CTD dimerization incubated for 5 hrs by TR-FRET assay
Structural capsid protein, sequence (Q76129 whole entry): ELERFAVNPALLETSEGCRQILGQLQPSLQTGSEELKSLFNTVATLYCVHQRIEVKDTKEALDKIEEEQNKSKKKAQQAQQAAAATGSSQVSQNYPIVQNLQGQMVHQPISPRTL

[17] = system: MT4; test: Cytotoxicity against […] MT4 cells; assay type: functional; conditions: Homo sapiens
[18] = system: Human immunodeficiency virus 1; test: Antiviral activity against HIV 1 assessed as log 10 reduction in viral load; assay type: functional
[19] = system: Human immunodeficiency virus 1; test: Antiviral activity against HIV 1 infected in […] MT4 cells; assay type: functional, organism-based; conditions: Human immunodeficiency virus 1, MT4

Cc1[nH]c2ccccc2c1CC(=O)N[C@@H](Cc1ccccc1)C(=O)N(C)c1ccccc1
EC50 [1]: 570 nM

O=C(O)c1ccc(-c2nc(-c3ccccc3)c(-c3ccccc3)[nH]2)cc1
IC50 [2]: 22500 nM

CCc1cc(-c2ccc(C(F)(F)F)o2)n(-c2ccc3c(c2)nc(-c2cc(C(=O)N4CCCC4)ccc2O)n3Cc2ccc(=O)[nH]c2)n1
EC50 [3]: 62 nM | IC50 [4]: 61 nM

O=C1NC(c2cccnc2)c2c(-c3ccccc3)n[nH]c21 (stereo not given)
EC50 [5]: 1800 nM | EC50 [6]: 1400 nM

O=C(O)c1ccc(-c2ccc3c(c2)nc(-c2c[nH]nc2-c2cccc(Cl)c2)n3CCCn2ccnc2)cc1
IC50 [7]: 57000 nM

Cn1nc(NS(C)(=O)=O)c2cccc(-n3c([C@H](Cc4cc(F)cc(F)c4)NC(=O)Cn4nc(C(F)F)c5c4C(F)(F)[C@H]4C[C@@H]54)nc4cc(-c5ncccn5)ccc4c3=O)c21
EC50 [8]: 0.025 nM

CC(C)(C#Cc1ccc(-c2ccc(Cl)c3c(NS(=O)(=O)C4CC4)nn(CC(F)(F)F)c23)c([C@H](Cc2cc(F)cc(F)c2)NC(=O)Cn2nc(C(F)(F)F)c3c2C(F)(F)[C@@H]2C[C@H]32)n1)S(C)(=O)=O
EC50 [9]: 0.14 nM | EC50 [10]: 0.14 nM | half-life [11]: 7.2 h

O=C(O)c1ccc(-c2nc(-c3ccc4oc5ccc(-c6nc(-c7ccc(C(=O)O)cc7)[nH]c6-c6ccccc6)cc5c4c3)c(-c3ccccc3)[nH]2)cc1
IC50 [2]: 33300 nM

COc1ccc(N(C)C(=O)[C@H](Cc2cc(F)cc(F)c2)NC(=O)c2cccc(-c3cn(-c4ccc([N+](=O)[O-])cc4)nn3)c2)cc1
CC50 [12]: > 35500 nM | EC50 [13]: 2130 nM

CCCCC[C@](C)(NC(=O)[C@H](CC(C)C)NC(=O)[C@H](CC(C)C)NC(=O)[C@H](CC(=O)O)NC(=O)[C@](C)(CCCCC)NC(=O)[C@H](Cc1ccccc1)NC(=O)[C@@H](NC(=O)[C@@H](N)[C@@H](C)CC)[C@@H](C)O)C(=O)N[C@@H](Cc1ccc(O)cc1)C(=O)N[C@@H](Cc1ccc(O)cc1)C(=O)NCC(=O)N1CCC[C@H]1C(=O)O
IC50 [14]: 4000 nM

O=c1c2ccccc2[se]n1-c1ccccc1 [EBSELEN]
EC50 [15]: 4250 nM | IC50 [16]: 46.7 nM

CC(C)(C#Cc1ccc(-c2ccc(Cl)c3c(NS(C)(=O)=O)nn(CC(F)(F)F)c23)c([C@H](Cc2cc(F)cc(F)c2)NC(=O)Cn2nc(C(F)(F)F)c3c2C(F)(F)[C@@H]2C[C@H]32)n1)S(C)(=O)=O [LENACAPAVIR]
CC50 [17]: 27000 nM | log(activity) [18]: 0.5 | EC50 [19]: 0.1 nM
